Inconclusive results are not listed.

In the assay the test system is nude mice, HT29 intrarenal xenograft, tumor weight T/C. Kind of assay: NCI In Vivo Anticancer Drug Screen. Data for tumor model HT29;CX-1 Human Adenocarcinoma (MER+) (intrarenal inoculation) in NU/NU Swiss (nude) mice. The following applies: endpoint: mean tumor weight change, higher = larger tumour. In a few lines: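 Tumor-bearing mice received test compound or vehicle, and tumor size or survival was recorded. Values are the treated-group measurement divided by the vehicle-treated control measurement.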

The mark [1] stands for this setting: dose: 75.0 mg/kg/injection, schedule: Q04DX004 (sc), vehicle: saline with Tween-80.
The mark [2] stands for this setting: dose: 150.0 mg/kg/injection, schedule: Q04DX004 (sc), vehicle: saline with Tween-80.
Where [3] appears, read: dose: 300.0 mg/kg/injection, schedule: Q04DX004 (sc), vehicle: saline with Tween-80.
Setting [4] is: dose: 600.0 mg/kg/injection, schedule: Q04DX004 (sc), vehicle: saline with Tween-80.
[5] abbreviates: dose: 1200.0 mg/kg/injection, schedule: Q04DX004 (sc), vehicle: saline with Tween-80.
Where [6] appears, read: dose: 300.0 mg/kg/injection, schedule: Q04DX004 (sc), vehicle: saline.
Setting [7] is: dose: 100.0 mg/kg/injection, schedule: Q04DX004 (sc), vehicle: saline with Tween-80.
The mark [8] stands for this setting: dose: 200.0 mg/kg/injection, schedule: Q04DX004 (sc), vehicle: saline with Tween-80.
Setting [9] is: dose: 400.0 mg/kg/injection, schedule: Q04DX004 (sc), vehicle: saline with Tween-80.
Where [10] appears, read: dose: 37.5 mg/kg/injection, schedule: Q04DX004 (sc), vehicle: saline with Tween-80.

As to `CS(=O)(=O)c1ncc(Br)cn1`, the T/C runs as follows: (dose: 62.5 mg/kg/injection, schedule: Q04DX004 (sc), vehicle: saline) 83 % of control; under setting [1], 99 % of control; (dose: 125.0 mg/kg/injection, schedule: Q04DX004 (sc), vehicle: saline) 109 % of control; under setting [2], 109 % of control; (dose: 250.0 mg/kg/injection, schedule: Q04DX004 (sc), vehicle: saline) 92 % of control; under setting [3], 57 % of control. The T/C (dose: 500.0 mg/kg/injection, schedule: Q04DX004 (sc), vehicle: saline) is 89 % of control.
For the compound `O=Cc1c(O)c2ccccc2[nH]c1=O`, the T/C reads like this: under setting [3], 79 % of control; under setting [4], 98 % of control; under setting [5], 65 % of control.
`OCCCN1CCCCC1CO` (configuration not stated): the T/C is, setting by setting: (dose: 225.0 mg/kg/injection, schedule: Q04DX004 (sc), vehicle: saline) 106 % of control; (dose: 450.0 mg/kg/injection, schedule: Q04DX004 (sc), vehicle: saline) 89 % of control; (dose: 900.0 mg/kg/injection, schedule: Q04DX004 (sc), vehicle: saline) 92 % of control.
Consider `COC(=O)C(Cl)(Cl)N=Nc1c(Cl)cc(Cl)c(C)c1Cl`, for which the T/C is, setting by setting: (dose: 225.0 mg/kg/injection, schedule: Q04DX004 (sc), vehicle: saline with Tween-80) 87 % of control; (dose: 450.0 mg/kg/injection, schedule: Q04DX004 (sc), vehicle: saline with Tween-80) 105 % of control; (dose: 900.0 mg/kg/injection, schedule: Q04DX004 (sc), vehicle: saline with Tween-80) 81 % of control; (dose: 1800.0 mg/kg/injection, schedule: Q04DX004 (sc), vehicle: saline with Tween-80) 115 % of control.
`O=NN(CCCl)C(=O)NCCO`: the T/C (dose: 12.5 mg/kg/injection, schedule: Q04DX004 (sc), vehicle: water) is 81 % of control.
For `Cc1c2cc[n+](CCN3CCCCC3)cc2c(C)c2c1[nH]c1ccc(O)cc12`, the T/C was 100 % of control (dose: 12.5 mg/kg/injection, schedule: Q04DX004 (sc), vehicle: suspension in saline); 108 % of control (dose: 25.0 mg/kg/injection, schedule: Q04DX004 (sc), vehicle: suspension in saline); 98 % of control (dose: 50.0 mg/kg/injection, schedule: Q04DX004 (sc), vehicle: suspension in saline).
As to `CNc1nc2c(N)ncnc2n1C1OC(CO)C(O)C1O` (configuration not stated), the T/C (dose: 25.0 mg/kg/injection, schedule: Q04DX004 (sc), vehicle: saline) is 87 % of control.
`C1CC[N-]CC1.C1CC[N-]CC1.C1CC[N-]CC1.[Cl][Rh]([Cl])[Cl]`: the T/C is, setting by setting: (dose: 150.0 mg/kg/injection, schedule: Q04DX004 (sc), vehicle: saline) 36 % of control; under setting [6], 25 % of control.
Turning to `OCC1OC(n2cnc3cc(Cl)c(Cl)cc32)C(O)C1O` (configuration not stated), the T/C reads like this: under setting [3], 111 % of control; under setting [4], 60 % of control; under setting [5], 122 % of control.
Turning to `CC1=CC2C(O)(CC(CO)=CC3C4C(C)(C)C4(OC(=O)c4ccccc4)C(OC(=O)c4ccccc4)C(C)C32O)C1=O` (configuration not stated), the T/C (dose: 5.0 mg/kg/injection, schedule: Q04DX004 (sc), vehicle: saline with Tween-80) was 43 % of control.
Turning to `COC1=C(OC)C(=O)C(SC/C=C(\C)CCCC(C)CCCC(C)CCCC(C)C)=CC1=O` (configuration not stated), the T/C is, setting by setting: under setting [7], 11 % of control; under setting [8], 36 % of control; under setting [3], 59 % of control; under setting [9], 18 % of control; under setting [4], 26 % of control; (dose: 800.0 mg/kg/injection, schedule: Q04DX004 (sc), vehicle: saline with Tween-80) 12 % of control. In addition, the T/C under setting [5] is 39 % of control and the T/C (dose: 2400.0 mg/kg/injection, schedule: Q04DX004 (sc), vehicle: saline with Tween-80) was 55 % of control.
In the case of `COC(=O)C[C@](O)(CCCC(C)(C)O)C(=O)O[C@@H]1C(OC)=C[C@]23CCCN2CCc2cc4c(cc2[C@H]13)OCO4`, the T/C (dose: 0.5 mg/kg/injection, schedule: Q01DX010 (sc), vehicle: saline) was 41 % of control.
For the compound `Cc1ncc(CNC(=O)N(CCCl)N=O)c(N)n1`, the T/C reads like this: (dose: 9.38 mg/kg/injection, schedule: Q04DX004 (sc), vehicle: saline) 55 % of control; (dose: 18.75 mg/kg/injection, schedule: Q04DX004 (sc), vehicle: saline) 39 % of control.
With `c1ccc(CN2CCOC2)cc1`, the T/C is, setting by setting: (dose: 25.0 mg/kg/injection, schedule: Q01DX010 (sc), vehicle: suspension in saline) 100 % of control; (dose: 50.0 mg/kg/injection, schedule: Q01DX010 (sc), vehicle: suspension in saline) 106 % of control; (dose: 100.0 mg/kg/injection, schedule: Q01DX010 (sc), vehicle: suspension in saline) 102 % of control.
For `CCOC(=O)Nc1cc2c(c(N)n1)N=C(CN(C)c1ccccc1)CN2`, the T/C was 35 % of control (dose: 6.0 mg/kg/injection, schedule: Q01DX010 (sc), vehicle: Klucel (hydroxypropylcellulose) (HPC)); 45 % of control (dose: 12.0 mg/kg/injection, schedule: Q01DX010 (sc), vehicle: Klucel (hydroxypropylcellulose) (HPC)); 53 % of control (dose: 24.0 mg/kg/injection, schedule: Q01DX010 (sc), vehicle: Klucel (hydroxypropylcellulose) (HPC)).
With `Nc1nc(N)c2c(ccc3c2ccn3Cc2cccc([N+](=O)[O-])c2)n1`, the T/C (dose: 6.25 mg/kg/injection, schedule: Q04DX004 (sc), vehicle: saline with Tween-80) is 97 % of control; the T/C (dose: 12.5 mg/kg/injection, schedule: Q04DX004 (sc), vehicle: saline with Tween-80) is 78 % of control; the T/C (dose: 25.0 mg/kg/injection, schedule: Q04DX004 (sc), vehicle: saline with Tween-80) was 57 % of control; the T/C (dose: 50.0 mg/kg/injection, schedule: Q04DX004 (sc), vehicle: saline with Tween-80) was 77 % of control; the T/C under setting [1] was 157 % of control; the T/C under setting [2] was 54 % of control.
With `C=C(C)C(=NC(C)(C)C)Nc1ccccc1`, the T/C under setting [7] was 52 % of control.
As for `COC(=O)C(F)C(Br)C(=O)OC` (configuration not stated), the T/C reads like this: (dose: 9.37 mg/kg/injection, schedule: Q04DX004 (sc), vehicle: saline with Tween-80) 207 % of control; (dose: 18.75 mg/kg/injection, schedule: Q04DX004 (sc), vehicle: saline with Tween-80) 68 % of control; under setting [10], 223 % of control.
Turning to `C/C(=C\c1ccccc1)[N+](=O)[O-]`, the T/C is, setting by setting: (dose: 50.0 mg/kg/injection, schedule: Q01DX010 (sc), vehicle: Klucel (hydroxypropylcellulose) (HPC)) 91 % of control; (dose: 100.0 mg/kg/injection, schedule: Q01DX010 (sc), vehicle: Klucel (hydroxypropylcellulose) (HPC)) 110 % of control.
Regarding `O=c1ncccn1[C@@H]1O[C@H](CO)[C@H](O)C1O` (some centres not stated), the T/C runs as follows: under setting [6], 110 % of control; (dose: 600.0 mg/kg/injection, schedule: Q04DX004 (sc), vehicle: saline) 87 % of control; (dose: 1200.0 mg/kg/injection, schedule: Q04DX004 (sc), vehicle: saline) 51 % of control; (dose: 2400.0 mg/kg/injection, schedule: Q04DX004 (sc), vehicle: saline) 55 % of control.
Consider `CC(C)NC(=O)N(CCCCBr)N=O`, for which the T/C (dose: 75.0 mg/kg/injection, schedule: Q04DX004 (sc), vehicle: Klucel (hydroxypropylcellulose) (HPC)) is 174 % of control; the T/C (dose: 150.0 mg/kg/injection, schedule: Q04DX004 (sc), vehicle: Klucel (hydroxypropylcellulose) (HPC)) is 182 % of control; the T/C (dose: 300.0 mg/kg/injection, schedule: Q04DX004 (sc), vehicle: Klucel (hydroxypropylcellulose) (HPC)) was 91 % of control; the T/C (dose: 600.0 mg/kg/injection, schedule: Q04DX004 (sc), vehicle: Klucel (hydroxypropylcellulose) (HPC)) is 108 % of control.
Regarding `CC/C(=C(/CC)c1ccc(O)cc1)c1ccc(O)cc1`, the T/C is, setting by setting: under setting [2], 70 % of control; under setting [3], 69 % of control.
Consider `O=S1(=O)C=C(c2ccccc2)C(c2ccccc2)=C1`, for which the T/C is, setting by setting: under setting [2], 58 % of control; under setting [3], 83 % of control; under setting [4], 97 % of control; under setting [5], 85 % of control.
Consider `CN(C)CCCNc1c2ccccc2nc2cccc([N+](=O)[O-])c12`, for which the T/C (dose: 0.37 mg/kg/injection, schedule: Q04DX004 (sc), vehicle: saline) was 226 % of control.
As to `CN=S(=O)(OCCCCCOS(=O)(=NC)c1ccccc1)c1ccccc1` (configuration not stated), the T/C runs as follows: under setting [2], 66 % of control; under setting [3], 60 % of control; under setting [4], 27 % of control.
For `CCOC(=O)Nc1cc2c(c(N)n1)N=C(c1ccc(Cl)cc1Cl)CN2`, the T/C reads like this: under setting [10], 92 % of control; under setting [1], 150 % of control; under setting [2], 78 % of control; under setting [3], 83 % of control.
On to `C1OCN2CSCC12` (configuration not stated), for which the T/C is 39 % of control under setting [7], 80 % of control under setting [8] and 46 % of control under setting [9].

Source of the values: PubChem BioAssay AID206 (DTP/NCI, 2004).
